Test results published in US4617149A, “Growth hormone release factor analogs” (Eli Lilly and Company, priority 1983, dated 1986).
Blank lines part the entries; values can stand above or below the molecule they belong to. No end group written: not given here.

Experiments:
[1] = stability of hpGRF control solution by HPLC; type: physicochemical; settings: 0.5 mg hpGRF/ml in 0.01M HCl, stored at 22° C., over six hours
Method: One mg of hpGRF, obtained from Peninsula Laboratories, was solubilized in one ml of 0.01M hydrochloric acid ([…]). The solution was divided into four equal aliquots, and each was diluted to a concentration of 0.5 mg hpGRF/ml by the addition of 250 μl of 0.01M HCl. The first aliquot was removed and stored at 22° C. for the duration of the experimentation, to serve as a control. Analysis of the control and the extent of each respective chemical modification with hydrogen peroxide, cyanogen bromide, and methyl iodide, described hereinbelow, was performed by high performance liquid chromatography (HPLC). Quantitation was achieved by peak height measurement at 214 nm, of a symmetrical peak eluting at 10 minutes from a (0.46×25 cm) Zorbax C8, 150 Angstrom reverse phase column, at 45° C. in 0.1M ammonium phosphate buffer, pH 7.2/27.5% 1-propanol, v/v. […] Each modification reaction was quenched by a 5:1 dilution (hpGRF final concentration of 0.1 mg/ml) with addition of two ml of 0.1M methionine/0.01M HCl, pH 3.5. Samples were divided and stored at -20° C. and 4° C. prior to analysis of biological activity.

[2] = peptide obtained by selective S-methylation of glucagon; cited from earlier work
[3] = tested on: pituitary release of growth hormone; settings: in vitro, cited from earlier work

change in HPLC peak elution time or height [1]: no change in peak elution time or height
Molecule: CC[C@H](C)[C@H](NC(=O)[C@H](C)NC(=O)[C@H](CC(=O)O)NC(=O)[C@H](C)NC(=O)[C@@H](N)Cc1ccc(O)cc1)C(=O)N[C@@H](Cc1ccccc1)C(=O)N[C@H](C(=O)N[C@@H](CC(N)=O)C(=O)N[C@@H](CO)C(=O)N[C@@H](Cc1ccc(O)cc1)C(=O)N[C@@H](CCCNC(=N)N)C(=O)N[C@@H](CCCCN)C(=O)N[C@H](C(=O)N[C@@H](CC(C)C)C(=O)NCC(=O)N[C@@H](CCC(N)=O)C(=O)N[C@@H](CC(C)C)C(=O)N[C@@H](CO)C(=O)N[C@@H](C)C(=O)N[C@@H](CCCNC(=N)N)C(=O)N[C@@H](CCCCN)C(=O)N[C@@H](CC(C)C)C(=O)N[C@@H](CC(C)C)C(=O)N[C@@H](CCC(N)=O)C(=O)N[C@@H](CC(=O)O)C(=O)N[C@H](C(=O)N[C@@H](CCSC)C(=O)N[C@@H](CO)C(=O)N[C@@H](CCCNC(=N)N)C(=O)N[C@@H](CCC(N)=O)C(=O)N[C@@H](CCC(N)=O)C(=O)NCC(=O)N[C@@H](CCC(=O)O)C(=O)N[C@@H](CO)C(=O)N[C@@H](CC(N)=O)C(=O)N[C@@H](CCC(N)=O)C(=O)N[C@@H](CCC(=O)O)C(=O)N[C@@H](CCCNC(=N)N)C(=O)NCC(=O)N[C@@H](C)C(=O)N[C@@H](CCCNC(=N)N)C(=O)N[C@@H](C)C(=O)N[C@@H](CCCNC(=N)N)C(=O)N[C@@H](CC(C)C)C(N)=O)[C@@H](C)CC)C(C)C)[C@@H](C)O [hpGRF]

Molecule: glucagon
activity as % of the inherent activity of the native hormone [2]: less than 1%

Molecule: hpGRF(1-27)-NH2: shortened GRF analog prepared and tested by Rivier et al. (YADAIFTNSYRKVLGQLSARKLLQDIM-NH2; UniProt P01286 32-58, looked up, fragment)
intrinsic activity [3]: full intrinsic activity | potency as % of the potency of hpGRF(1-40)-OH ([3]; relative to hpGRF(1-40)-OH): 10-20%
